These results are taken from ChEMBL document CHEMBL1212885, “Identification and characterization of acidic mammalian chitinase inhibitors” (J Med Chem, 2010).

Molecules are shown by their SMILES. Where only a bound is given, the exact number is not on record here.

The nature of experiment [1]: Inhibition of chitotriosidase after 60 mins.
Experiment [2] has as its system Mus musculus. The experiment can be described thus: Antiallergic activity in C57BL/6 mouse assessed as reduction of HDM/CRA-induced chitinase activity in bronchoalveolar lavage fluid at 50 mg/kg, po administered twice daily. Format: functional, C57BL6, Lung. On the set-up: scale not given: the % may be the effect or the level left.
Experiment [3] has as its target T1, Acidic mammalian chitinase (Homo sapiens, UniProt Q9BZP6). The experiment can be described thus: Inhibition of acidic mammalian chitinase after 60 mins.
Experiment [4] has as its target T1, Acidic mammalian chitinase. The experiment can be described thus: Binding affinity to biotinylated-acidic mammalian chitinase.
Experiment [5] deals with Mus musculus. Briefly: Antiallergic activity in C57BL/6 mouse assessed as reduction of HDM/CRA-induced chitinase activity in bronchoalveolar lavage fluid at 10 mg/kg, ip administered once daily. In kind it is functional, C57BL6, Lung. On the set-up: scale not given: the % may be the effect or the level left. To be noted: route intraperitoneal.

T1 sequence (Q9BZP6 whole entry): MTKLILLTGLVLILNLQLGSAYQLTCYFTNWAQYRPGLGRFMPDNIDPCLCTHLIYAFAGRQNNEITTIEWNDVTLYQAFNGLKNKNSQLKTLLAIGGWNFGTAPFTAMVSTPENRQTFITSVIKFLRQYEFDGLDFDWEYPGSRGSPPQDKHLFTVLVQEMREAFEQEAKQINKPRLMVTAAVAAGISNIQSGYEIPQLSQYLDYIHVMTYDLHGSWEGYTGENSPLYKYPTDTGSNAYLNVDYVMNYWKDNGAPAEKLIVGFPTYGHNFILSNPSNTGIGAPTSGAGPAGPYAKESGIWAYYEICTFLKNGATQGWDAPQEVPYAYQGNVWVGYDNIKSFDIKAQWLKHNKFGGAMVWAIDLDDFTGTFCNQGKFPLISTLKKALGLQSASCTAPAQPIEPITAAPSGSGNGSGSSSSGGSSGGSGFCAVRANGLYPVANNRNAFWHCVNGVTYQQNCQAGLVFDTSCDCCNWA

By IC50 is commonly meant the point on the concentration scale where inhibition reaches its midpoint. As for `Nc1n[nH]c(N2CCN(CCOc3ccc(Br)cc3)CC2)n1`, the IC50 in experiment [1] was 4.23 µM. In addition, the Activity with Mus musculus [2] came out at 43%. In experiment [1], `Cc1[nH]c2ccccc2c1CN1CCN(c2ccccn2)CC1` showed an IC50 of 1.34 µM. Same read-out and setting: in the case of `N=C(N)N1CCN(c2ccc(Cl)cc2)CC1` it was above 100 µM. One may read the Kd as the equilibrium constant for the complex coming apart. `NC(=O)c1cccnc1N1CCNCC1`: the IC50 in experiment [3] worked out at 102 µM; in experiment [1], 90.1 µM. Besides, binding in experiment [4] was characterised by a dissociation constant (Kd) of 141 µM. `C[C@@H]1C[C@H]2[C@@H]3CCC4=CC(=O)C=C[C@]4(C)[C@@]3(F)[C@@H](O)C[C@]2(C)[C@@]1(O)C(=O)CO` [DEXAMETHASONE]: in the experiment with Mus musculus [5], the Activity came to 60%.
